Biological target: T1, nanoKAZ (Oplophorus gracilirostris, UniProt Q9GV45, A31E/A60N/A81I/F95D/I117V/K70R/L54V/L99Q/M102K/N193R/P142E/Q151K/Q38R/Q45L/V71I/Y165I)
T1 construct: luciferase catalytic domain (nanoKAZ, 19 kDa) from the Oplophorus-derived luciferase
Experiment: Michaelis-Menten parameters of nanoKAZ from Lineweaver-Burk representation
Type: biochemical
Conditions: extrapolated from Lineweaver-Burk, constant enzyme concentration
Description: The two dotted lines (linear regression) are converging to the same intercept with the x-axis (−1/Km) and different intercepts with the y-axis (1/Vmax). The equations of the two linear regressions are indicated and the corresponding correlation factors (R^2) with the experimental data are reported.
Considering the hypothesis of a Michaelis-Menten mechanism for the nanoKAZ, the Km and Vmax were extrapolated from the Lineweaver-Burk representation of the enzyme activity catalyzing either Q-1 or Q-3. […] The data have been fitted with linear regression with satisfying high correlation factors (R). The Km are the same for both substrates (Km=2 μM) whereas the Vmax is 3-times lower for Q-1 (0.6·10^6 RLU/sec) than for Q-3 (2.0·10^6 RLU/sec).

T1 sequence (Q9GV45 other isoform, or with tags, fused parts or gaps with the stated changes): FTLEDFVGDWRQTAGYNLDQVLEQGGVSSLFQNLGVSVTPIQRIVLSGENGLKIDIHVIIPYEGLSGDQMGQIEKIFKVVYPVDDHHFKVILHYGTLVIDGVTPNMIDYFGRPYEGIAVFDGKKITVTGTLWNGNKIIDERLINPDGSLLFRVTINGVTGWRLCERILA

| SMILES | Km [nM] |
| --- | --- |
| Cc1ccc(Cc2nc3c(Cc4ccccc4)[nH]c(-c4ccccc4)cn-3c2=O)o1 [Q-3, 8-benzyl-2-((5-methylfuran-2-yl)methyl)-6-phenylimidazo[1,2-a]pyrazin-3(7H)-one] | 2000 |
| O=c1c(Cc2ccco2)nc2c(Cc3ccccc3)[nH]c(-c3ccccc3)cn1-2 [Q-1, 8-benzyl-2-(furan-2-ylmethyl)-6-phenylimidazo[1,2-a]pyrazin-3(7H)-one, reference compound] | 2000 |

Reference: patent US12612411B1, “Imidazopyrazine derivatives, process for preparation thereof, and their uses as luciferins” (INSTITUT PASTEUR, priority 2017, dated 2026)
